Measurements as given in ChEMBL document CHEMBL3885881, “DrugMatrix”.

Organism: Rattus norvegicus
Assay: DrugMatrix - Regimen: Daily Repeat
Assay type: toxicity, organism-based, Sprague-Dawley
Parameters: regimen Daily Repeat, gender Male, age 6-8 weeks
Conditions: in vivo, po, 16 mg/kg, route oral GAVAGE, dose level Low, […]; for ABSOLUTE BASOPHIL / ABSOLUTE EOSINOPHIL / ABSOLUTE LYMPHOCYTE / ABSOLUTE MONOCYTE / ABSOLUTE SEGMENTED NEUTROPHIL / BASOPHIL / EOSINOPHIL / ERYTHROCYTE COUNT / HEMATOCRIT / HEMOGLOBIN / LEUKOCYTE COUNT / LYMPHOCYTE / MEAN CORPUSCULAR HEMOGLOBIN / MEAN CORPUSCULAR HEMOGLOBIN CONCENTRATION / MEAN CORPUSCULAR VOLUME / MONOCYTE / NEUTROPHIL / NUCLEATED RED BLOOD CELLS / PLATELET COUNT: tissue Blood; for ALANINE AMINOTRANSFERASE / ALBUMIN / ALKALINE PHOSPHATASE / ASPARTATE AMINOTRANSFERASE / BLOOD UREA NITROGEN / CARBON DIOXIDE / CHLORIDE / CHOLESTEROL / CREATINE PHOSPHOKINASE / CREATININE / GLUCOSE / LACTATE DEHYDROGENASE / LIPASE / PHOSPHORUS / POTASSIUM / SODIUM / TOTAL BILIRUBIN / TOTAL PROTEIN / URIC ACID: tissue Plasma

How did the “ABSOLUTE BASOPHIL” value (72 h, time 3 day) turn out when `O=C(O)c1cc(-c2ccc(F)cc2F)ccc1O` [DIFLUNISAL] was run?
The value was 0 CELLS/uL.

And the “ABSOLUTE EOSINOPHIL” value (72 h, time 3 day)?
The value was 52.33 CELLS/uL.

And the “ABSOLUTE LYMPHOCYTE” value (72 h, time 3 day)?
The value was 12636.67 CELLS/uL.

And the “ABSOLUTE MONOCYTE” value (72 h, time 3 day)?
Its value is 104.67 CELLS/uL.

What about the “ABSOLUTE SEGMENTED NEUTROPHIL” value (72 h, time 3 day) of the same molecule?
The value was 1073 CELLS/uL.

What about the BASOPHIL (72 h, time 3 day) of the same molecule?
The BASOPHIL was 0%.

And the EOSINOPHIL (72 h, time 3 day)?
The EOSINOPHIL was 0.33%.

What about the “ERYTHROCYTE COUNT” value (72 h, time 3 day) of the same molecule?
Its value is 5.44 x10E6/uL.

What about the HEMATOCRIT (72 h, time 3 day) of the same molecule?
The HEMATOCRIT was 33.4%.

And the HEMOGLOBIN (72 h, time 3 day)?
The HEMOGLOBIN was 13.27 G/DL.

What about the “LEUKOCYTE COUNT” value (72 h, time 3 day) of the same molecule?
Its value is 13.87 x10E3/uL.

And the LYMPHOCYTE (72 h, time 3 day)?
Its LYMPHOCYTE is 91.33%.

What about the “MEAN CORPUSCULAR HEMOGLOBIN” value (72 h, time 3 day) of the same molecule?
The value was 24.4 pg.

And the “MEAN CORPUSCULAR HEMOGLOBIN CONCENTRATION” value (72 h, time 3 day)?
The value was 39.73 G/DL.

What about the “MEAN CORPUSCULAR VOLUME” value (72 h, time 3 day) of the same molecule?
Its value is 61.47 fL.

What about the MONOCYTE (72 h, time 3 day) of the same molecule?
The MONOCYTE was 0.67%.

And the NEUTROPHIL (72 h, time 3 day)?
Its NEUTROPHIL is 7.67%.

And the “NUCLEATED RED BLOOD CELLS” value (72 h, time 3 day)?
The value was 0 /100WBC.

What about the “PLATELET COUNT” value (72 h, time 3 day) of the same molecule?
Its value is 1096.67 x10E3/uL.

And the “ALANINE AMINOTRANSFERASE” value (72 h, time 3 day)?
Its value is 65.33 u/L.

And the ALBUMIN (72 h, time 3 day)?
The ALBUMIN was 3.77 G/DL.

And the “ALKALINE PHOSPHATASE” value (72 h, time 3 day)?
The value was 396.67 u/L.

And the “ASPARTATE AMINOTRANSFERASE” value (72 h, time 3 day)?
Its value is 93.33 u/L.

And the “BLOOD UREA NITROGEN” value (72 h, time 3 day)?
Its value is 10.67 mg/dL.

What about the “CARBON DIOXIDE” value (72 h, time 3 day) of the same molecule?
Its value is 29.67 mmol/L.

And the CHLORIDE (72 h, time 3 day)?
The CHLORIDE was 100 MEQ/L.

What about the CHOLESTEROL (72 h, time 3 day) of the same molecule?
Its CHOLESTEROL is 80.67 mg/dL.

What about the “CREATINE PHOSPHOKINASE” value (72 h, time 3 day) of the same molecule?
The value was 405 u/L.

And the CREATININE (72 h, time 3 day)?
The CREATININE was 0.14 mg/dL.

And the GLUCOSE (72 h, time 3 day)?
The GLUCOSE was 166.67 mg/dL.

And the “LACTATE DEHYDROGENASE” value (72 h, time 3 day)?
The value was 130 u/L.

What about the LIPASE (72 h, time 3 day) of the same molecule?
Its LIPASE is 11.33 u/L.

What about the PHOSPHORUS (72 h, time 3 day) of the same molecule?
The PHOSPHORUS was 11.43 mg/dL.

And the POTASSIUM (72 h, time 3 day)?
The POTASSIUM was 6.17 MEQ/L.

What about the SODIUM (72 h, time 3 day) of the same molecule?
The SODIUM was 141.97 MEQ/L.

And the “TOTAL BILIRUBIN” value (72 h, time 3 day)?
Its value is 0.13 mg/dL.

What about the “TOTAL PROTEIN” value (72 h, time 3 day) of the same molecule?
The value was 5.47 G/DL.

And the “URIC ACID” value (72 h, time 3 day)?
The value was 1.53 mg/dL.

What about the “ABSOLUTE BASOPHIL” value (120 h, time 5 day) of the same molecule?
The value was 0 CELLS/uL.

What about the “ABSOLUTE EOSINOPHIL” value (120 h, time 5 day) of the same molecule?
Its value is 84.67 CELLS/uL.

What about the “ABSOLUTE LYMPHOCYTE” value (120 h, time 5 day) of the same molecule?
The value was 10265 CELLS/uL.

What about the “ABSOLUTE MONOCYTE” value (120 h, time 5 day) of the same molecule?
Its value is 157.67 CELLS/uL.

And the “ABSOLUTE SEGMENTED NEUTROPHIL” value (120 h, time 5 day)?
The value was 1026 CELLS/uL.

What about the BASOPHIL (120 h, time 5 day) of the same molecule?
The BASOPHIL was 0%.

And the EOSINOPHIL (120 h, time 5 day)?
Its EOSINOPHIL is 0.67%.

What about the “ERYTHROCYTE COUNT” value (120 h, time 5 day) of the same molecule?
Its value is 5.28 x10E6/uL.

And the HEMATOCRIT (120 h, time 5 day)?
The HEMATOCRIT was 33.5%.

What about the HEMOGLOBIN (120 h, time 5 day) of the same molecule?
The HEMOGLOBIN was 13.6 G/DL.

And the “LEUKOCYTE COUNT” value (120 h, time 5 day)?
Its value is 11.53 x10E3/uL.

And the LYMPHOCYTE (120 h, time 5 day)?
Its LYMPHOCYTE is 89%.

And the “MEAN CORPUSCULAR HEMOGLOBIN” value (120 h, time 5 day)?
Its value is 25.73 pg.

And the “MEAN CORPUSCULAR HEMOGLOBIN CONCENTRATION” value (120 h, time 5 day)?
Its value is 40.63 G/DL.

And the “MEAN CORPUSCULAR VOLUME” value (120 h, time 5 day)?
The value was 63.37 fL.

What about the MONOCYTE (120 h, time 5 day) of the same molecule?
The MONOCYTE was 1.33%.

And the NEUTROPHIL (120 h, time 5 day)?
The NEUTROPHIL was 9%.

And the “NUCLEATED RED BLOOD CELLS” value (120 h, time 5 day)?
Its value is 0.33 /100WBC.

What about the “PLATELET COUNT” value (120 h, time 5 day) of the same molecule?
Its value is 1107.33 x10E3/uL.

What about the “ALANINE AMINOTRANSFERASE” value (120 h, time 5 day) of the same molecule?
Its value is 56 u/L.

What about the ALBUMIN (120 h, time 5 day) of the same molecule?
Its ALBUMIN is 4.13 G/DL.

What about the “ALKALINE PHOSPHATASE” value (120 h, time 5 day) of the same molecule?
The value was 404.33 u/L.

And the “ASPARTATE AMINOTRANSFERASE” value (120 h, time 5 day)?
Its value is 84.33 u/L.

And the “BLOOD UREA NITROGEN” value (120 h, time 5 day)?
Its value is 16 mg/dL.

What about the “CARBON DIOXIDE” value (120 h, time 5 day) of the same molecule?
Its value is 25.33 mmol/L.

And the CHLORIDE (120 h, time 5 day)?
Its CHLORIDE is 102.33 MEQ/L.

And the CHOLESTEROL (120 h, time 5 day)?
Its CHOLESTEROL is 68.67 mg/dL.

And the “CREATINE PHOSPHOKINASE” value (120 h, time 5 day)?
The value was 379.67 u/L.

What about the CREATININE (120 h, time 5 day) of the same molecule?
Its CREATININE is 0.23 mg/dL.

And the GLUCOSE (120 h, time 5 day)?
Its GLUCOSE is 159.33 mg/dL.

And the “LACTATE DEHYDROGENASE” value (120 h, time 5 day)?
The value was 227 u/L.

And the LIPASE (120 h, time 5 day)?
The LIPASE was 11.67 u/L.

What about the PHOSPHORUS (120 h, time 5 day) of the same molecule?
Its PHOSPHORUS is 11.33 mg/dL.

And the POTASSIUM (120 h, time 5 day)?
Its POTASSIUM is 6.39 MEQ/L.

And the SODIUM (120 h, time 5 day)?
The SODIUM was 143.53 MEQ/L.

And the “TOTAL BILIRUBIN” value (120 h, time 5 day)?
The value was 0.17 mg/dL.

What about the “TOTAL PROTEIN” value (120 h, time 5 day) of the same molecule?
The value was 5.47 G/DL.

What about the “URIC ACID” value (120 h, time 5 day) of the same molecule?
The value was 1.67 mg/dL.
